Earlier results in US20240335409A1, “SYSTEMS AND METHODS FOR DELIVERY OF PHENYLALANINE AND LACTATE” (Transdermal Biotechnology, Inc., priority 2022, published 2024).

## C[C@H](O)C(=O)N[C@@H](Cc1ccccc1)C(=O)O [Lac-Phe, N-lactoyl-phenylalanine]
other
  water solubility: > 2000 µM
mice
  effect on food intake and obesity: effectively reduce food intake and obesity
